System: corticospinal neurons (CSNs/CSMNs)
Assay: Laser-capture microdissection and Illumina microarray gene expression in corticospinal neurons contralateral to stroke
Assay type: in vivo, rat
Method: In a separate group of animals (n=20), layer V pyramidal cells of the sensorimotor cortex were retrogradely labeled by injecting Alexa-Fluor-488-conjugated cholera toxin B subunit (CTB; 300 U/μl in sterile saline) into the cervical spinal cord. For this, animals were anesthetized with a combination of ketamine and Domitor (medetomidine) and a laminectomy was performed at the cervical level of the spinal cord (C2-C4). CTB was stereotaxically delivered into four sites lateral to the corticospinal tract. Injections (1.3 μl) were spaced 1 mm apart on the rostro-caudal axis, and were made 0.5 mm to the left and right of the midline. After allowing two weeks for transport of the tracer, we performed either sham surgery with no treatment (n=6) or stroke surgery combined with saline (n=3) or inosine (n=4) treatment as described above. Seven days later, animals were decapitated under transient gas anesthesia, brains were removed and rinsed in cold RPMI medium, and a tissue block containing the sensorimotor cortex was dissected and placed in OCT Tissue Tek Medium (Sakura Finetek USA Inc., CA) on dry ice within five minutes of death. Ten μm sections were cut onto precleaned Gold Seal RITE-ON glass slides (Gold Seal Prod-ucts, Portsmouth, N.H.), placed on dry ice, and rapidly stored at −80° C.
Slide-mounted sections were thawed and dehydrated in RNAse-free ethanol gradients and xylene. Retro-gradely labeled, fluorescent cortical pyramidal cells in the undamaged hemisphere were individually captured using the Arcturus VERITAS system. ≧500 cells were collected from each animal and stored in Arcturus extraction buffer at −80° C. Total RNA was extracted from cells using the Micro-to-Midi TotalRNA Purification System (Invitrogen, Carlsbad Calif.) and double-amplified using the TargetAmp 2-Round Aminoallyl-aRNA Amplification kit 1.0 (Epicentre, Madison, Wis.). Amplified RNA was checked for average fragment length using the Agilent RNA 6000 Nano LabChip kit (Agilent Technologies, Santa Clara, Calif.) and then biotinylated and hybridized (1 μg) on Illumina RatRef-12 Expression BeadChip arrays (Illumina, San Diego Calif.), querying the expression of >22,000 RefSeq-curated rat transcripts. Results were obtained from a total of 15 samples representing 6 untreated controls, 4 animals with stroke treated with saline and 5 animals with stroke treated with inosine. Slides were processed and scanned with Illumina BeadStation platform according to the manufacturer protocol.
Raw data was analyzed using Bioconductor packages (www.bioconductor.org, (Gentleman et al., 2004)). Low level quality-control analysis was performed using inter-array Pearson correlation and clustering based on variance. Two arrays (1 saline and 1 inosine-treated) were outliers and were excluded from the analysis. Data was normalized using quantile normalization, and analysis of differential expression was performed using a linear model fitting (LIMMA package, (Smyth, 2005). Differentially expressed genes were classified according to gene ontology using Bioconductor packages and online tools (DAVID, http://david.abcc.ncifcrf.gov/). Pathway analysis was carried out using Ingenuity Pathway Analysis (Ingenuity Systems, www.ingenuity.com).

In the case of OC[C@H]1O[C@@H](n2cnc3c(O)ncnc32)[C@H](O)[C@@H]1O [inosine], the “Fold-Induction Stroke, ino vs. cntrl” value (A2m ILMN_70335) is reported as 4.03, the “Signal Intensity Inosine” value (A2m ILMN_70335) is reported as 1924 and the “Fold-Induction Stroke, ino vs. cntrl” value (ADRP ILMN_47969) is reported as 4.12. For the same compound, the “Signal Intensity Inosine” value (ADRP ILMN_47969) was 3202, the “Fold-Induction Stroke, ino vs. cntrl” value (Adn ILMN_58846) was 4.53 and the “Signal Intensity Inosine” value (Adn ILMN_58846) was 2287. The “Fold-Induction Stroke, ino vs. cntrl” value (Aif1 ILMN_47707) was 2.67, the “Signal Intensity Inosine” value (Aif1 ILMN_47707) was 4301 and the “Fold-Induction Stroke, ino vs. cntrl” value (Arhgdib ILMN_66176) was 4.08. The “Signal Intensity Inosine” value (Arhgdib ILMN_66176) was 3057, the “Fold-Induction Stroke, ino vs. cntrl” value (Arpc1b ILMN_69642) was 2.61 and the “Signal Intensity Inosine” value (Arpc1b ILMN_69642) was 758. The “Fold-Induction Stroke, ino vs. cntrl” value (Asb2 ILMN_50991) was 3.27, the “Signal Intensity Inosine” value (Asb2 ILMN_50991) was 615 and the “Fold-Induction Stroke, ino vs. cntrl” value (Aurkc ILMN_69140) was 1.43. The “Signal Intensity Inosine” value (Aurkc ILMN_69140) was 1172, the “Fold-Induction Stroke, ino vs. cntrl” value (Bcl2a1 ILMN_62703) was 3.34 and the “Signal Intensity Inosine” value (Bcl2a1 ILMN_62703) was 613. For the same compound, the “Fold-Induction Stroke, ino vs. cntrl” value (Btf3 ILMN_62809) was 0.43, the “Signal Intensity Inosine” value (Btf3 ILMN_62809) was 787 and the “Fold-Induction Stroke, ino vs. cntrl” value (C1qb ILMN_61448) was 2.76. The “Signal Intensity Inosine” value (C1qb ILMN_61448) was 1832, the “Fold-Induction Stroke, ino vs. cntrl” value (C1qg ILMN_55502) was 3.66 and the “Signal Intensity Inosine” value (C1qg ILMN_55502) was 2499. The “Fold-Induction Stroke, ino vs. cntrl” value (C2 ILMN_63608) was 3.12, the “Signal Intensity Inosine” value (C2 ILMN_63608) was 4113 and the “Fold-Induction Stroke, ino vs. cntrl” value (C4-2 ILMN_59751) was 2.95. The “Signal Intensity Inosine” value (C4-2 ILMN_59751) was 2409, the “Fold-Induction Stroke, ino vs. cntrl” value (Card9 ILMN_62382) was 2.83 and the “Signal Intensity Inosine” value (Card9 ILMN_62382) was 865. The “Fold-Induction Stroke, ino vs. cntrl” value (Cd68 ILMN_60003) was 3.88, the “Signal Intensity Inosine” value (Cd68 ILMN_60003) was 2117 and the “Fold-Induction Stroke, ino vs. cntrl” value (Cd151 ILMN_62725) was 1.50. The “Signal Intensity Inosine” value (Cd151 ILMN_62725) was 1171, the “Fold-Induction Stroke, ino vs. cntrl” value (Cdk5rap2 ILMN_57761) was 1.68 and the “Signal Intensity Inosine” value (Cdk5rap2 ILMN_57761) was 1377. For the same compound, the “Fold-Induction Stroke, ino vs. cntrl” value (Chd4 ILMN_55276) was 1.26, the “Signal Intensity Inosine” value (Chd4 ILMN_55276) was 7413 and the “Fold-Induction Stroke, ino vs. cntrl” value (Cml1 ILMN_50957) was 1.08. The “Signal Intensity Inosine” value (Cml1 ILMN_50957) was 275, the “Fold-Induction Stroke, ino vs. cntrl” value (Comt ILMN_48330) was 1.09 and the “Signal Intensity Inosine” value (Comt ILMN_48330) was 400. The “Fold-Induction Stroke, ino vs. cntrl” value (Crabp2 ILMN_48069) was 2.62, the “Signal Intensity Inosine” value (Crabp2 ILMN_48069) was 1006 and the “Fold-Induction Stroke, ino vs. cntrl” value (Cyba ILMN_65212) was 4.04. For the same compound, the “Signal Intensity Inosine” value (Cyba ILMN_65212) was 2617, the “Fold-Induction Stroke, ino vs. cntrl” value (Dhrsx ILMN_56966) was 1.38 and the “Signal Intensity Inosine” value (Dhrsx ILMN_56966) was 8022. For the same compound, the “Fold-Induction Stroke, ino vs. cntrl” value (Dtx2 ILMN_65350) was 2.24, the “Signal Intensity Inosine” value (Dtx2 ILMN_65350) was 1792 and the “Fold-Induction Stroke, ino vs. cntrl” value (Esd ILMN_57701) was 0.44. The “Signal Intensity Inosine” value (Esd ILMN_57701) was 1416, the “Fold-Induction Stroke, ino vs. cntrl” value (Ftl1 ILMN_62100) was 2.24 and the “Signal Intensity Inosine” value (Ftl1 ILMN_62100) was 11718. For the same compound, the “Fold-Induction Stroke, ino vs. cntrl” value (Fxr2h ILMN_59638) was 1.64, the “Signal Intensity Inosine” value (Fxr2h ILMN_59638) was 638 and the “Fold-Induction Stroke, ino vs. cntrl” value (Gfap ILMN_68224) was 2.88. For the same compound, the “Signal Intensity Inosine” value (Gfap ILMN_68224) was 23099, the “Fold-induction CSMNs: Aif1” value (ILMN_47707, over and above inosine's effect of decreasing stroke-induced changes) was 2.33 fold and the “Fold-Induction Stroke, ino vs. cntrl, Uxs1” value (ILMN_47889) was 0.66. For the same compound, the “Signal Intensity, Uxs1” value (ILMN_47889, inosine after stroke) was 2868, the “Fold-Induction Stroke, ino vs. cntrl, LOC366193” value (ILMN_48004) was 0.67 and the “Signal Intensity, LOC366193” value (ILMN_48004, inosine after stroke) was 2396. For the same compound, the “Fold-induction CSMNs: Crabp2” value (ILMN_48069, over and above inosine's effect of decreasing stroke-induced changes) was 2.12 fold, the “Fold-induction CSMNs: Ifitm3” value (ILMN_48088, over and above inosine's effect of decreasing stroke-induced changes) was 2.74 fold and the “Fold-Induction Stroke, ino vs. cntrl, Ap3s1” value (ILMN_48320) was 0.55. The “Signal Intensity, Ap3s1” value (ILMN_48320, inosine after stroke) was 285, the “Fold-Induction Stroke, ino vs. cntrl, LOC499423” value (ILMN_48323) was 0.53 and the “Signal Intensity, LOC499423” value (ILMN_48323, inosine after stroke) was 1043. The “Fold-Induction Stroke, ino vs. cntrl, Wee1” value (ILMN_48447) was 0.83, the “Signal Intensity, Wee1” value (ILMN_48447, inosine after stroke) was 367 and the “Fold-Induction Stroke, ino vs. cntrl, Sfrs10” value (ILMN_48507) was 0.72.

— US8912144B2, “Method for treating stroke via administration of NEP1-40 and inosine” (Children's Medical Center Corporation, priority 2003, dated 2014)
